A short description of experiment [1]: Competitive inhibition of Acidithiobacillus ferrooxidans KDO8P synthase using PEP as substrate after 10 to 15 mins by Michaelis-Menten equation.
Experiment [2] concerns the target 2-dehydro-3-deoxyphosphooctonate aldolase (Neisseria meningitidis serogroup B (strain MC58), UniProt Q9JZ55). The experiment in a line: Competitive inhibition of Neisseria meningitidis serotype B strain MC58 ATCC BAA355 KDO8P synthase expressed in Escherichia coli BL21 (DE3) cells using PEP as substrate after 10 to 15 mins by Michaelis-Menten equation.
The nature of experiment [3]: Inhibition of Escherichia coli KDO8P.
Experiment [4] in a line: Inhibition of Helicobacter pylori KDO8P.

Sequence of 2-dehydro-3-deoxyphosphooctonate aldolase (Q9JZ55 whole entry): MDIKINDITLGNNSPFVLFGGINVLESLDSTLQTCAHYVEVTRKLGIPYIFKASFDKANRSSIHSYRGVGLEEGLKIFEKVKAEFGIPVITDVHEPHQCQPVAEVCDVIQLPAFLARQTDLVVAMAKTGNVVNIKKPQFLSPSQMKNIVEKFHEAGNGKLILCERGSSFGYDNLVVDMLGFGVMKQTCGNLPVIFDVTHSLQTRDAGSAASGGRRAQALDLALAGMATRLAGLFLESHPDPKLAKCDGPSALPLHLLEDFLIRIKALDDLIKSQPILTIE

For orientation: Ki means a dissociation constant, usually derived from enzyme kinetics or from competition with a known ligand. Consider `O=C(O)C(O)CCCCCCOP(=O)(O)O` (centres undefined), for which the Ki in experiment [1] came to 190 µM; in experiment [2] it was 270 µM.
The IC50 is the concentration needed to halve the response being measured. Low readings indicate greater potency in that assay, high ones weaker potency in that assay. `O=C(O)CN(C[C@@H](O)[C@@H](O)[C@H](O)[C@H](O)COP(=O)(O)O)CP(=O)(O)O` yielded a Ki in experiment [3] of 370 nM. Besides, the IC50 in experiment [4] is 132 µM.
For the compound `O=C(O)CNCP(=O)(O)O` [GLYPHOSATE], the Ki came out at 330 µM in experiment [1] and 260 µM in experiment [2].
Taken in the same sequence, the figures for `C[C@H](OP(=O)(O)O)C(=O)O` were 1000 µM and 1200 µM.
For `O=C(O)C(CCCCCCO)OP(=O)(O)O` (centres undefined), the Ki in experiment [1] was 540 µM; in experiment [2], 1000 µM.
Taken in the same sequence, the figures for `C[C@@H](OP(=O)(O)O)C(=O)O` were 390 µM and 870 µM.
Taken in the same sequence, the figures for `O=C(O)C(CCCCCCOP(=O)(O)O)OP(=O)(O)O` (centres undefined) were 20 µM and 7.9 µM.

The record behind these values is ChEMBL document CHEMBL1938378, “Synthesis and evaluation of tetrahedral intermediate mimic inhibitors of 3-deoxy-d-manno-octulosonate 8-phosphate synthase” (Bioorg Med Chem Lett, 2012).
